Measured values from PubChem BioAssay (NCI).
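Values below derive from 48-hour exposures of cells grown in 96-well plates, with endpoints linearly interpolated between the two concentrations bracketing the appropriate inhibition level. Definition used: TGI = concentration required for complete inhibition of growth.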

Columns and labels:
Test in all cases: NCI-60 cell line screen, 48 h
786-0 renal = test system: 786-0 renal
A498 renal = test system: A498 renal
A549 NSCLC = test system: A549 NSCLC
ACHN renal = test system: ACHN renal
BT-549 breast = test system: BT-549 breast
CAKI-1 renal = test system: CAKI-1 renal
CCRF-CEM leukemia = test system: CCRF-CEM leukemia
COLO 205 colon = test system: COLO 205 colon
DU-145 prostate = test system: DU-145 prostate
EKVX NSCLC = test system: EKVX NSCLC
HCC-2998 colon = test system: HCC-2998 colon
HCT-116 colon = test system: HCT-116 colon
HCT-15 colon = test system: HCT-15 colon
HL-60(TB) leukemia = test system: HL-60(TB) leukemia
HOP-62 NSCLC = test system: HOP-62 NSCLC
HOP-92 NSCLC = test system: HOP-92 NSCLC
HS 578T breast = test system: HS 578T breast
HT29 colon = test system: HT29 colon
IGROV1 ovarian = test system: IGROV1 ovarian
K-562 leukemia = test system: K-562 leukemia
KM12 colon = test system: KM12 colon
LOX IMVI melanoma = test system: LOX IMVI melanoma
M14 melanoma = test system: M14 melanoma
MALME-3M melanoma = test system: MALME-3M melanoma
MCF7 breast = test system: MCF7 breast
MDA-MB-231 breast = test system: MDA-MB-231 breast
MDA-MB-435 = test system: MDA-MB-435
MDA-N = test system: MDA-N
MOLT-4 leukemia = test system: MOLT-4 leukemia
NCI-H23 lung = test system: NCI-H23 lung
NCI-H460 lung = test system: NCI-H460 lung
NCI-H522 lung = test system: NCI-H522 lung
NCI/ADR-RES ovarian = test system: NCI/ADR-RES ovarian
OVCAR-3 ovarian = test system: OVCAR-3 ovarian
OVCAR-4 ovarian = test system: OVCAR-4 ovarian
OVCAR-5 ovarian = test system: OVCAR-5 ovarian
OVCAR-8 ovarian = test system: OVCAR-8 ovarian
PC-3 prostate = test system: PC-3 prostate
RPMI-8226 leukemia = test system: RPMI-8226 leukemia
RXF 393 renal = test system: RXF 393 renal
SF-268 CNS = test system: SF-268 CNS
SF-295 CNS = test system: SF-295 CNS
SF-539 CNS = test system: SF-539 CNS
SK-MEL-2 melanoma = test system: SK-MEL-2 melanoma
SK-MEL-28 melanoma = test system: SK-MEL-28 melanoma
SK-MEL-5 melanoma = test system: SK-MEL-5 melanoma
SK-OV-3 ovarian = test system: SK-OV-3 ovarian
SN12C renal = test system: SN12C renal
SNB-19 CNS = test system: SNB-19 CNS
SNB-75 CNS = test system: SNB-75 CNS
SR leukemia = test system: SR leukemia
SW-620 colon = test system: SW-620 colon
T-47D breast = test system: T-47D breast
TK-10 renal = test system: TK-10 renal
U251 CNS = test system: U251 CNS
UACC-257 melanoma = test system: UACC-257 melanoma
UACC-62 melanoma = test system: UACC-62 melanoma
UO-31 renal = test system: UO-31 renal
NCI-H226 lung = test system: NCI-H226 lung

## CC1(O)C(=O)OC2CC([C@]3(O)CCC4[C@@H]5C[C@H]6O[C@]67[C@@H](O)C=CC(=O)[C@]7(C)C5CC[C@@]43C)C1(C)C2 (some centres undefined)
786-0 renal
  TGI: 25.6 µM
A498 renal
  TGI: > 100 µM
A549 NSCLC
  TGI: > 100 µM
ACHN renal
  TGI: 73.8 µM
BT-549 breast
  TGI: 26.1 µM
CAKI-1 renal
  TGI: 25.4 µM
CCRF-CEM leukemia
  TGI: 9.54 µM
COLO 205 colon
  TGI: 20.7 µM
DU-145 prostate
  TGI: 75.2 µM
EKVX NSCLC
  TGI: > 100 µM
HCC-2998 colon
  TGI: > 100 µM
HCT-116 colon
  TGI: 23.1 µM
HCT-15 colon
  TGI: 51.9 µM
HL-60(TB) leukemia
  TGI: 19.9 µM
HOP-62 NSCLC
  TGI: > 100 µM
HOP-92 NSCLC
  TGI: 10.9 µM
HS 578T breast
  TGI: > 96.7 µM
HT29 colon
  TGI: 36.5 µM
IGROV1 ovarian
  TGI: > 31.6 µM
K-562 leukemia
  TGI: > 31.6 µM
KM12 colon
  TGI: > 64.1 µM
LOX IMVI melanoma
  TGI: 15.7 µM
M14 melanoma
  TGI: 26.4 µM
MALME-3M melanoma
  TGI: 16.6 µM
MCF7 breast
  TGI: > 33 µM
MDA-MB-231 breast
  TGI: 36 µM
MDA-MB-435
  TGI: 33.2 µM
MDA-N
  TGI: 17.9 µM
MOLT-4 leukemia
  TGI: 31.6 µM
NCI-H23 lung
  TGI: 25.1 µM
NCI-H460 lung
  TGI: > 80.5 µM
NCI-H522 lung
  TGI: 4.85 µM
NCI/ADR-RES ovarian
  TGI: > 100 µM
OVCAR-3 ovarian
  TGI: 35 µM
OVCAR-4 ovarian
  TGI: 26.5 µM
OVCAR-5 ovarian
  TGI: 74.1 µM
OVCAR-8 ovarian
  TGI: > 100 µM
PC-3 prostate
  TGI: 50.5 µM
RPMI-8226 leukemia
  TGI: 19.7 µM
RXF 393 renal
  TGI: 13.2 µM
SF-268 CNS
  TGI: > 92 µM
SF-295 CNS
  TGI: > 100 µM
SF-539 CNS
  TGI: 44.5 µM
SK-MEL-2 melanoma
  TGI: 28.6 µM
SK-MEL-28 melanoma
  TGI: 26 µM
SK-MEL-5 melanoma
  TGI: 45.3 µM
SK-OV-3 ovarian
  TGI: > 100 µM
SN12C renal
  TGI: 63.4 µM
SNB-19 CNS
  TGI: > 100 µM
SNB-75 CNS
  TGI: > 94.1 µM
SR leukemia
  TGI: 10.6 µM
SW-620 colon
  TGI: 11.1 µM
T-47D breast
  TGI: 18.5 µM
TK-10 renal
  TGI: 23.2 µM
U251 CNS
  TGI: > 72.6 µM
UACC-257 melanoma
  TGI: 26.6 µM
UACC-62 melanoma
  TGI: 30.2 µM
UO-31 renal
  TGI: > 85.3 µM

## C[C@]12CC[C@H]3[C@@H](CCC4=C[C@@H](OC5OCC(OC6OC(CO)C(O)C(O)C6O)C(O)C5O)CC[C@@]43C=O)[C@@]1(O)CCC2C1=CC(=O)OC1 (some centres undefined)
786-0 renal
  TGI: 1.23 µM
A498 renal
  TGI: 2.99 µM
A549 NSCLC
  TGI: 0.484 µM
ACHN renal
  TGI: 2.25 µM
BT-549 breast
  TGI: 0.881 µM
CAKI-1 renal
  TGI: 1.62 µM
CCRF-CEM leukemia
  TGI: > 100 µM
COLO 205 colon
  TGI: 3.25 µM
DU-145 prostate
  TGI: 1.44 µM
EKVX NSCLC
  TGI: 1.64 µM
HCC-2998 colon
  TGI: 1.38 µM
HCT-116 colon
  TGI: 1.25 µM
HCT-15 colon
  TGI: 1.76 µM
HL-60(TB) leukemia
  TGI: 0.646 µM
HOP-62 NSCLC
  TGI: 1.84 µM
HOP-92 NSCLC
  TGI: 5.13 µM
HS 578T breast
  TGI: > 100 µM
HT29 colon
  TGI: 5.35 µM
IGROV1 ovarian
  TGI: 2.66 µM
K-562 leukemia
  TGI: 3.38 µM
KM12 colon
  TGI: 13.9 µM
LOX IMVI melanoma
  TGI: 2.96 µM
M14 melanoma
  TGI: 2.79 µM
MALME-3M melanoma
  TGI: 2.19 µM
MCF7 breast
  TGI: > 100 µM
MDA-MB-231 breast
  TGI: > 73.7 µM
MDA-MB-435
  TGI: 3.71 µM
MDA-N
  TGI: 3.03 µM
MOLT-4 leukemia
  TGI: 0.346 µM
NCI-H226 lung
  TGI: 5.79 µM
NCI-H23 lung
  TGI: 1.08 µM
NCI-H460 lung
  TGI: 0.534 µM
NCI-H522 lung
  TGI: 2.88 µM
NCI/ADR-RES ovarian
  TGI: 3.28 µM
OVCAR-3 ovarian
  TGI: 1.43 µM
OVCAR-4 ovarian
  TGI: 1.07 µM
OVCAR-5 ovarian
  TGI: 3.78 µM
OVCAR-8 ovarian
  TGI: 2.76 µM
PC-3 prostate
  TGI: 4.14 µM
RPMI-8226 leukemia
  TGI: 2.75 µM
RXF 393 renal
  TGI: 1.2 µM
SF-268 CNS
  TGI: 1.64 µM
SF-295 CNS
  TGI: 3.53 µM
SF-539 CNS
  TGI: 1.68 µM
SK-MEL-2 melanoma
  TGI: 5.93 µM
SK-MEL-28 melanoma
  TGI: 9.62 µM
SK-OV-3 ovarian
  TGI: 3.75 µM
SN12C renal
  TGI: 2.01 µM
SNB-19 CNS
  TGI: 11.9 µM
SNB-75 CNS
  TGI: 12.8 µM
SR leukemia
  TGI: 0.627 µM
SW-620 colon
  TGI: 9.23 µM
T-47D breast
  TGI: > 24.8 µM
TK-10 renal
  TGI: 8.19 µM
U251 CNS
  TGI: 8.84 µM
UACC-62 melanoma
  TGI: 4.29 µM
UO-31 renal
  TGI: 3.45 µM

## COc1cc2c(cc1O)CC[C@@H]1C2CC[C@@]2(C)C1CC[C@@H]2O (some centres undefined)
786-0 renal
  TGI: > 100 µM
A498 renal
  TGI: 50.4 µM
A549 NSCLC
  TGI: > 100 µM
ACHN renal
  TGI: > 100 µM
BT-549 breast
  TGI: > 100 µM
CAKI-1 renal
  TGI: > 97.4 µM
CCRF-CEM leukemia
  TGI: 22.3 µM
COLO 205 colon
  TGI: 81.3 µM
DU-145 prostate
  TGI: > 100 µM
EKVX NSCLC
  TGI: 44.6 µM
HCC-2998 colon
  TGI: 34.3 µM
HCT-116 colon
  TGI: > 81 µM
HCT-15 colon
  TGI: 49 µM
HL-60(TB) leukemia
  TGI: 8.18 µM
HOP-62 NSCLC
  TGI: 45.8 µM
HOP-92 NSCLC
  TGI: > 97.9 µM
HS 578T breast
  TGI: 7.63 µM
HT29 colon
  TGI: 64.6 µM
IGROV1 ovarian
  TGI: > 100 µM
K-562 leukemia
  TGI: 26.1 µM
KM12 colon
  TGI: 61.8 µM
LOX IMVI melanoma
  TGI: > 100 µM
M14 melanoma
  TGI: > 100 µM
MALME-3M melanoma
  TGI: > 100 µM
MCF7 breast
  TGI: > 100 µM
MDA-MB-231 breast
  TGI: > 87.1 µM
MDA-MB-435
  TGI: 0.927 µM
MDA-N
  TGI: 0.574 µM
MOLT-4 leukemia
  TGI: 32.1 µM
NCI-H226 lung
  TGI: > 100 µM
NCI-H23 lung
  TGI: 51.7 µM
NCI-H460 lung
  TGI: > 72.7 µM
NCI-H522 lung
  TGI: 6.87 µM
NCI/ADR-RES ovarian
  TGI: 2.73 µM
OVCAR-3 ovarian
  TGI: 7.17 µM
OVCAR-4 ovarian
  TGI: > 100 µM
OVCAR-5 ovarian
  TGI: > 100 µM
OVCAR-8 ovarian
  TGI: 39.4 µM
PC-3 prostate
  TGI: > 100 µM
RPMI-8226 leukemia
  TGI: 13.5 µM
RXF 393 renal
  TGI: 57.6 µM
SF-268 CNS
  TGI: > 100 µM
SF-295 CNS
  TGI: 16.5 µM
SF-539 CNS
  TGI: 4.2 µM
SK-MEL-2 melanoma
  TGI: > 100 µM
SK-MEL-28 melanoma
  TGI: > 100 µM
SK-MEL-5 melanoma
  TGI: 36.7 µM
SK-OV-3 ovarian
  TGI: > 100 µM
SN12C renal
  TGI: > 82 µM
SNB-19 CNS
  TGI: > 100 µM
SNB-75 CNS
  TGI: 22.1 µM
SR leukemia
  TGI: 5.44 µM
SW-620 colon
  TGI: > 100 µM
T-47D breast
  TGI: > 100 µM
TK-10 renal
  TGI: > 94.1 µM
U251 CNS
  TGI: > 62.4 µM
UACC-257 melanoma
  TGI: > 100 µM
UACC-62 melanoma
  TGI: > 100 µM
UO-31 renal
  TGI: > 94.7 µM
